Laboratory results as given in US20230136301A1, “Corticosteriod Reduction in Treatment with Anti-CD38 Antibody” (Janssen Biotech, Inc., priority 2021, published 2023).
“And” between values parts separate entries of the source, which are not always exact repeats. Identical values can stand only once. Like-named read-outs stand apart in the source and are kept apart here.

What was measured:
patients with RRMM [1] = test: PAVO Part 3: infusion-related reactions (IRRs)
Experimental: Safety was assessed, with an emphasis on IRRs, while corticosteroids were reduced and discontinued.
The purpose of Part 3 was to evaluate the safety of daratumumab 1,800 mg SC delivery without predose and postdose corticosteroids after a 3-week, 2-week, and 1-week tapering schedule to assess the safety of corticosteroid-free SC daratumumab administration. […] In conjunction, patients also received a 3-week, 2-week, or 1-week steroid tapering schedule (FIG. 2). The 3-week tapering schedule (corticosteroid-free by Cycle 1 Day 22) consisted of methylprednisolone (MP) given orally (PO)/IV pre-dose (Cycle 1 Day 1, 100 mg; Cycle 1 Day 8, 60 mg; Cycle 1 Day 15, 30 mg) and PO post-dose (Cycle 1 Day 1, 20 mg for 2 days; Cycle 1 Day 8, 20 mg for 1 day; Cycle 1 Day 15, 20 mg for 1 day). The 2-week tapering schedule (corticosteroid-free by Cycle 1 Day 15) consisted of MP given PO/IV pre-dose (Cycle 1 Day 1, 100 mg; Cycle 1 Day 8, 60 mg) and PO post-dose (Cycle 1 Day 1, 20 mg for 2 days; Cycle 1 Day 8, 20 mg for 1 day). The 1-week tapering schedule (corticosteroid-free by Cycle 1 Day 8) consisted of dexamethasone 20 mg administered IV pre-dose on Cycle 1 Day 1, without post-dose administration.
The 3-week, 2-week and 1-week steroid tapering schedules were assessed by “3+3” design, followed by cohort expansion to approximately 15 patients (3-week and 2-week tapering cohorts) or 12 patients (1-week tapering cohort). The dose-limiting toxicity (DLT) assessment period in the 3-week, 2-week and 1-week tapering cohorts were Cycle 1 Day 1 through Cycle 2 Day 4, Cycle 1 Day 1 through Cycle 1 Day 25, and Cycle 1 Day 1 through Cycle 1 Day 11, respectively. […] Grade 3 or 4 IRRs only qualified as DLTs if they occurred during corticosteroid reduction or discontinuation (not during Cycle 1 Day 1). For the 3-week and 2-week groups, IRRs reported at Cycle 1 Day 1 were not considered DLTs, as corticosteroids had not yet been reduced or discontinued. Up to approximately 12 patients could be enrolled in the 1-week tapering schedule to assess safety, including IRRs.
Safety assessments included treatment-emergent adverse events (TEAEs), serious adverse events, and IRRs. All toxicities were graded according to the National Cancer Institute's Common Terminology for the Classification of Adverse Events (NCI-CTCAE) Version 4.03 (National Cancer Institute. Common Terminology Criteria for Adverse Events (CTCAE): Version 4.03.).

[2] = PAVO Part 3: serum daratumumab concentration, pre-dose Cycle 3 Day 1; type: in vivo, human; conditions: Cycle 3 Day 1 pre-dose
patients with RRMM [3] = conditions: PAVO Part 2; follow-up 14.2 months; cited from earlier work
[4] = test system: patients with multiple myeloma; conditions: cited from earlier work
patients with RRMM [5] = test: PAVO Part 3: efficacy by IMWG response criteria; type: in vivo, human
Experimental: The primary endpoint was safety of pre- and post-dose steroid tapering. Key secondary endpoints included the overall response rate (ORR) and the rate of complete response (CR).
For the evaluation of efficacy, responses were assessed according to International Myeloma Working Group (IMWG) consensus recommendations (Durie et al., Leukemia 20(9):1467-73 (2006); Rajkumar et al., Blood 117(18):4691-95 (2011)). Disease evaluations were performed by a central laboratory.
In PAVO Part 3, no formal statistical hypothesis testing was performed. Data were summarized descriptively. Continuous variables were summarized using the number of observations, mean and standard deviation (SD), coefficient of variation, median and range as appropriate. Categorical variables were summarized using the number of observations and percentages as appropriate. Duration of response and PFS were estimated using Kaplan-Meier methods.

DARA SC: 1,800 mg daratumumab co-formulated with 30,000 U rHuPH20 (2,000 U/mL, 15 mL), manual subcutaneous injection
Patients with an IRR (patients with RRMM [1]; 1-week taper): 2 (16.7%) n (%)
Patients with an IRR (patients with RRMM [1]; 2-week taper): 3 (20.0%) n (%)
Patients with an IRR (patients with RRMM [1]; 3-week taper): 0 (0%) n (%)
Grade 4 IRRs (patients with RRMM [1]; Total n=42): no grade 4 IRRs reported
IRR of increased blood pressure (patients with RRMM [1]; Total n=42): 1 (2.4%) n (%)
IRR of oropharyngeal pain (patients with RRMM [1]; Total n=42): 1 (2.4%) n (%)
IRR of tachycardia (patients with RRMM [1]; Total n=42): 1 (2.4%) n (%)
IRRs meeting the definition of a DLT (patients with RRMM [1]; Total n=42): None of the IRRs met the definition of a DLT
Patients with an IRR (patients with RRMM [1]; Total n=42): 5 (11.9%) n (%)
Number of grade 3 IRRs (patients with RRMM [1]; increased blood pressure, 2-week taper, resolved on day of onset): 1
Mean (SD) daratumumab serum concentration ([2]; 1-week taper): 706 (270) μg/mL and 706 μg/mL
Mean (SD) daratumumab serum concentration ([2]; 2-week taper): 731 (382) μg/mL and 731 μg/mL
Mean (SD) daratumumab serum concentration ([2]; 3-week taper): 604 (280) μg/mL and 604 μg/mL
Mean (SD) daratumumab serum concentration ([2]; total PK-evaluable n=37): 676 (314) μg/mL
Median duration of response (patients with RRMM [3]): 15.7 months
ORR (patients with RRMM [3]): 52%
Median PFS ([4]; COLUMBA primary analysis): 5.6 months
Median duration of response ([4]; COLUMBA, follow-up 7.5 months): not reached
Overall response rate ([4]; COLUMBA, median follow-up 7.5 months): 41%
9-month duration of response rate (patients with RRMM [5]; 1-week taper): 100%
Estimated 9-month PFS rate (patients with RRMM [5]; 1-week taper): 46.7%
Median PFS (patients with RRMM [5]; 1-week taper): 7.4 months
Median duration of response (patients with RRMM [5]; 1-week taper): not reached
Median time to best response (patients with RRMM [5]; 1-week taper): 1.0 months
Patients achieving ≥CR (patients with RRMM [5]; 1-week taper): 1 (8.3%) n (%)
Patients achieving ≥VGPR (patients with RRMM [5]; 1-week taper): 2 (16.7%) n (%)
Rate of very good partial response or better (patients with RRMM [5]; 1-week taper): 16.7%
Overall response rate (ORR) (patients with RRMM [5]; 1-week taper, median follow-up 8.3 months): 41.7%
9-month duration of response rate (patients with RRMM [5]; 2-week taper): 83.3%
Estimated 9-month PFS rate (patients with RRMM [5]; 2-week taper): 36.1%
Median PFS (patients with RRMM [5]; 2-week taper): 4.7 months
Median duration of response (patients with RRMM [5]; 2-week taper): 16.7 months
Median time to best response (patients with RRMM [5]; 2-week taper): 1.9 months
Patients achieving ≥CR (patients with RRMM [5]; 2-week taper): no patient
Patients achieving ≥VGPR (patients with RRMM [5]; 2-week taper): 5 (33.3%) n (%)
Rate of very good partial response or better (patients with RRMM [5]; 2-week taper): 33.3%
Overall response rate (ORR) (patients with RRMM [5]; 2-week taper, median follow-up 11.1 months): 40.0%
9-month duration of response rate (patients with RRMM [5]; 3-week taper): 83.3%
Estimated 9-month PFS rate (patients with RRMM [5]; 3-week taper): 40.0%
Median PFS (patients with RRMM [5]; 3-week taper): 5.9 months
Median duration of response (patients with RRMM [5]; 3-week taper): not reached
Median time to best response (patients with RRMM [5]; 3-week taper): 1.5 months
Patients achieving ≥CR (patients with RRMM [5]; 3-week taper): 1 (6.7%) n (%)
Patients achieving ≥VGPR (patients with RRMM [5]; 3-week taper): 3 (20.0%) n (%)
Rate of very good partial response or better (patients with RRMM [5]; 3-week taper): 20.0%
Overall response rate (ORR) (patients with RRMM [5]; 3-week taper, median follow-up 9.2 months): 40.0%
Patients achieving ≥CR (patients with RRMM [5]; Total n=42): 2 (4.8% (95% CI: 0.6%, 16.2%)) n (%)
Patients achieving ≥VGPR (patients with RRMM [5]; Total n=42): 10 (23.8% (95% CI: 12.1%, 39.5%)) n (%)
Overall response rate (ORR) (patients with RRMM [5]; Total n=42, median follow-up 8.3 months): 40.5%
Estimated 9-month PFS rate (patients with RRMM [5]; all treated N=42): 40.7%
Median PFS (patients with RRMM [5]; all treated N=42): 5.9 months
Median time to best response (patients with RRMM [5]; responders n=17): 1.1 months
Median time to first response (patients with RRMM [5]; responders n=17): 1.0 months
